How the values were obtained:
[1] = tested on: wounds resulting from an excision surgery to the nose; test: Bilateral surgical nose excision wounds, one wound treated; type: in vivo, human; conditions: left-side wound
Description: FIGS. 3a-3f illustrate the wound healing effect of a glycerophosphate salt on wounds resulting from an excision surgery, e.g., to the nose. A subject received two surgically inflicted wounds to their nose occasioned by removal of benign growths. […] Per physician's request, Neosporin® was applied to both wounds for one week, and Cellerity® was applied topically to the worst of the two wounds, i.e., the left-side surgical wound (on the right side of the photographs), twice daily. The subject was instructed to return to the laboratory for weekly observations.

[2] = tested on: rhino mucosal passage inflammation; test: Observation of low CGP concentrations on rhino mucosal passage inflammation; type: in vivo; conditions: lower concentrations, between 1% and 2% by weight
Description: In one embodiment of the present invention, an effective amount of a glycerophosphate salt, in a form of dry powder, granules, or gel is applied directly to the wound via spray, physical transfer by finger or implement to form a coating on the wound. The coating can contain a final local concentration of the glycerophosphate salt of about 0.5%-100% by weight. For example, the final local concentration of the glycerophosphate salt can be about 0.5% to about 5%, about 5% to about 15%, about 15% to about 25%, about 25% to about 35%, about 35% to about 45%, about 45% to about 55%, about 55% to about 65%, about 65% to about 75%, about 75% to about 85%, or about 85% to about 100%, by weight.

[3] = tested on: burn wound to the inner forearm; test: Burn wound to the inner forearm, right side of the wound treated; type: in vivo, human
Description: Color variations in the background of the photos are an artifact of the time of the day and the location when the pictures were taken.
FIGS. 4a-4f illustrate the wound healing effect of a glycerophosphate salt on a burn wound to the inner forearm of a human subject. […] The left-side of the wound received no treatment.

[4] = tested on: surgical wounds resulting from double knee replacement operations; test: 20-patient clinical study, surgical wounds from double knee replacement operations, one leg treated; type: in vivo, human
Description: FIGS. 2a-2d are black and white photocopies of the color photographs of the knees of another human subject. They received simultaneous bilateral total knee replacements. […] Their left leg (on the right side of the photographs) received no CGP treatment.
FIGS. 2a, 2b, 2c and 2d, which are black and white photocopies of the color photographs of the knees of one of the 20 human subjects, illustrate the exemplary results from the clinical study. The subject received simultaneous bilateral total knee replacements. […] Their left leg (on the right side of the photographs) received no CGP treatment. Since the commencement of the treatment, 2 ml of Cellerity® 10 lotion was topically applied to the wounds of the knee surgeries twice daily everyday and will continue for 6 consecutive weeks.
The untreated leg, in contrast, has deep, wandering scars that are almost chasms in their depth and raw openness.
In contrast, SteriStripes were required to be applied to the untreated leg and continued for an additional 6 days.
In addition, two subjects of the first five subjects enrolled in the double knee replacement clinical study described above reported they felt “less heat” in their knee incision site treated with CGP than in the untreated knee site during the early weeks of post operative recovery.

Question: calcium glycerophosphate [CGP] was tested. Which wound appearance ([1]; after 6 days of CGP treatment) did it give?
Answer: Its wound appearance is “appeared less deep than it was a week ago”.

Question: What about the wound appearance ([1]; after 16 days of CGP treatment) of the same substance?
Answer: Its wound appearance is “appeared significantly advanced”.

Question: What about the wound appearance ([1]; after 30 days of CGP treatment) of the same substance?
Answer: Its wound appearance is “healed, fully recolonized with epidermal skin”.

Question: What about the wound appearance ([1]; after 36 days of CGP treatment) of the same substance?
Answer: Its wound appearance is “completely healed”.

Question: What about the wound appearance ([1]; after 51 days of CGP treatment) of the same substance?
Answer: Its wound appearance is “completely healed”.

Question: What about the “wound healing, subject's report” value ([1]; after one day of treatment, Cellerity (7.5% (w/w) CGP) twice daily, Neosporin on both wounds for one week) of the same substance?
Answer: The value was “almost immediate apparent change in wound healing in favor of the CGP treated site”.

Question: And the “effect on apparent rhino mucosal passage inflammation” value [2]?
Answer: The value was “favorably affect”.

Question: And the “time at which the wound healing improvement effect was first observed” value ([3]; Cellerity lotion (7.5% (w/w) CGP) twice daily for the first three days, from 24 hours post infliction)?
Answer: Its value is 3 days.

Question: And the wound status ([3]; after 16 days of CGP treatment, 7.5% lotion for three days, then 37% (w/w) CGP paste, the untreated side still had a pinkish color)?
Answer: Its wound status is “completely healed and disappeared”.

Question: What about the “healing of the surgical wound / surgical scar” value ([4]; Cellerity 10 lotion (10% (w/w) CGP), 2 ml twice daily from approx. 72 hours post operation, up to 14 days post operation, vs untreated leg) of the same substance?
Answer: Its value is “healed dramatically better”.

Question: And the “swelling and continuing pale inflammation” value ([4]; Cellerity 10 lotion twice daily, 14 days post operation, observed in the untreated leg)?
Answer: Its value is “showed neither”.

Question: And the “need for SteriStrips post staple removal” value ([4]; treated leg, the untreated leg required SteriStrips for an additional 6 days)?
Answer: The value was “alleviated the need for application of SteriStrips”.

Question: What about the “heat felt in the knee incision site” value ([4]; two of the first five subjects enrolled, treated vs untreated knee site, early weeks of post operative recovery) of the same substance?
Answer: Its value is “less heat”.

From US20140363486A1, “METHODS FOR REDUCING OR ALTERING SCAR FORMATION” (Prelief, Inc., priority 2007, published 2014)
